Columns and labels:
Assay in all cases: Growth in liquid media in presence of test compound
Assay type in all cases: cell-based
[1] = system: Mycobacterium tuberculosis (H37Rv)
[2] = system: Candida albicans (ATCC 90028)
From the text: (§1) Test organisms used were the bacterial strains Escherichia coli (ATCC 25922), Pseudomonas aeruginosa (ATCC 27853), Staphylococcus aureus (ATCC 25923), Streptococcus pyogenes (ATCC 19615), and Mycobacterium tuberculosis (H37Rv), and the yeast strain Candida albicans (ATCC 90028).
(§2) The liquid media used for growth were Luria-Bertani (Becton Dickinson, Sparks, Md.) and Mueller-Hinton (bio-Merieux, Paris, France) broths, but with Saburo medium for Candida and Middlebrook 7H9 medium (Difco) for mycobacteria.
(§3) The strains were grown at 37° C. and after suitable cell concentrations had been reached, 100 μL of each cell suspension was added to a tube with growth media and test compound. Cultivation of the bacteria was then carried out in the presence of each test compound at 37° C. and the tubes examined for visible growth. The compounds were tested at concentrations of either 500 mg/l, 50 mg/l or 5 mg/l. This assay was repeated twice.
(§4) Some compounds were only tested against some test organisms. It will be appreciated that the charge of these molecules will depend on the environment, some of the Examples are shown with a suitable counter ion, some without.

[3] = system: Staphylococcus aureus (ATCC 25923)
From the text: as §1, §2, §3, §4

[4] = system: Streptococcus pyogenes (ATCC 19615)
From the text: as §1, §2, §3, §4

[5] = system: Escherichia coli (ATCC 25922)
From the text: as §1, §2, §3, §4

[6] = system: Pseudomonas aeruginosa (ATCC 27853)
From the text: as §1, §2, §3, §4

| Compound | Growth in the presence of test compound, M. tuberculosis ([1]; 5 mg/L) | Growth in the presence of test compound, M. tuberculosis ([1]; 50 mg/L) | Growth in the presence of test compound, M. tuberculosis ([1]; 500 mg/L) | Growth in the presence of test compound, C. albicans ([2]; 5 mg/L) | Growth in the presence of test compound, C. albicans ([2]; 50 mg/L) | Growth in the presence of test compound, C. albicans ([2]; 500 mg/L) | Growth in the presence of test compound, S. aureus ([3]; 5 mg/L) | Growth in the presence of test compound, S. aureus ([3]; 50 mg/L) | Growth in the presence of test compound, S. aureus ([3]; 500 mg/L) | Growth in the presence of test compound, S. pyogenes ([4]; 5 mg/L) | Growth in the presence of test compound, S. pyogenes ([4]; 50 mg/L) | Growth in the presence of test compound, S. pyogenes ([4]; 500 mg/L) | Growth in the presence of test compound, E. coli ([5]; 5 mg/L) | Growth in the presence of test compound, E. coli ([5]; 50 mg/L) | Growth in the presence of test compound, E. coli ([5]; 500 mg/L) | Growth in the presence of test compound, P. aeruginosa ([6]; 5 mg/L) | Growth in the presence of test compound, P. aeruginosa ([6]; 50 mg/L) | Growth in the presence of test compound, P. aeruginosa ([6]; 500 mg/L) |
| --- | --- | --- | --- | --- | --- | --- | --- | --- | --- | --- | --- | --- | --- | --- | --- | --- | --- | --- |
| C[C@H](CNC(=O)[C@@H](N)CCCCN)B1OC2CC3CC(C3(C)C)[C@@]2(C)O1 (stereo partly drawn) [Compound 16] | + | ± | − | + | + | ± |  |  |  |  |  |  |  |  |  |  |  |  |
| CC1(C)C2CC3OB(CC(Cc4ccccc4)NC(=O)C(N)Cc4c[nH]c5ccccc45)OC3(C)C1C2 (stereo not drawn) [Compound 5] | + | ± | − |  |  |  | + | + | − |  |  |  |  |  |  |  |  |  |
| C[C@H](CNC(=O)[C@@H](N)Cc1ccccc1)B1OC2CC3CC(C3(C)C)[C@@]2(C)O1 (stereo partly drawn) [Compound 17] | + | + | − | + | + | ± | + | + | − | + | + | − |  |  |  |  |  |  |
| C[C@H](N)C(=O)N[C@@H](CB(O)O)Cc1ccccc1 [Compound 35] | + | + | − |  |  |  |  |  |  |  |  |  |  |  |  |  |  |  |
| C[C@@H](B1OC2CC3CC(C3(C)C)[C@@]2(C)O1)[C@@H](Cc1ccccc1)NC(=O)[C@@H](N)Cc1ccccc1 (stereo partly drawn) [Compound 28] | + | − | − | + | + | ± | + | + | ± | + | + | ± |  |  |  |  |  |  |
| CC(N)C(=O)NC(CB1OC2CC3CC(C3(C)C)C2(C)O1)c1ccccc1 (stereo not drawn) [Compound 8] | + | + | − |  |  |  | + | + | ± |  |  |  |  |  |  |  |  |  |
| CC1(C)C2CC3OB(CCNC(=O)[C@@H](N)CCCCN)O[C@]3(C)C1C2 (stereo partly drawn) [Compound 32] | + | + | − | + | + | − |  |  |  |  |  |  | + | + | ± |  |  |  |
| CC(CB1OC2CC3CC(C3(C)C)C2(C)O1)NC(=O)C(N)CCCCN (stereo not drawn) [Compound 6] | + | + | ± |  |  |  |  |  |  |  |  |  |  |  |  |  |  |  |
| CC1(C)C2CC3OB(CC(Cc4ccccc4)NC(=O)C(N)CCCNC(=N)N)OC3(C)C1C2 (stereo not drawn) [Compound 4] | + | − | − | + | + | − | + | + | − | + | + | − | + | + | − |  |  |  |
| CC1(C)C2CC3OB([C@@H](CNC(=O)[C@@H](N)CCCCN)Cc4ccccc4)O[C@]3(C)C1C2 (stereo partly drawn) [Compound 9] | − | − | − | + | + | − | + | + | − | + | + | − |  |  |  | + | + | ± |
| NCCCC[C@H](N)C(=O)NC[C@@H](CCc1ccccc1)B(O)O [Compound 37] | + | + | − | + | + | − |  |  |  |  |  |  |  |  |  |  |  |  |
| CC(N)C(=O)NC(CB1OC2CC3CC(C3(C)C)C2(C)O1)Cc1ccccc1 (stereo not drawn) [Compound 3] | + | − | − |  |  |  | + | + | − | + | + | − |  |  |  |  |  |  |
| CC1(C)C2CC3OB(CC(Cc4ccccc4)NC(=O)C(N)Cc4ccccc4)OC3(C)C1C2 (stereo not drawn) [Compound 2] | + | + | ± |  |  |  |  |  |  |  |  |  |  |  |  |  |  |  |
| C[C@@H](NC(=O)[C@@H](N)Cc1ccccc1)[C@@H](Cc1ccccc1)B1OC2CC3CC(C3(C)C)[C@@]2(C)O1 (stereo partly drawn) [Compound 27] | + | − | ± | + | + | ± |  |  |  | + | + | ± |  |  |  |  |  |  |
| N[C@@H](Cc1ccccc1)C(=O)NC[C@@H](CCc1ccccc1)B(O)O [Compound 39] | + | + | − |  |  |  |  |  |  |  |  |  | + | + | − |  |  |  |
| CC1(C)C2CC3OB([C@@H](CNC(=O)[C@@H](N)Cc4ccccc4)Cc4ccccc4)O[C@]3(C)C1C2 (stereo partly drawn) [Compound 10] | − | − | − | + | + | ± | + | + | ± | + | + | ± |  |  |  |  |  |  |
| CC1(C)C2CC3OB([C@@H](CNC(=O)[C@@H](N)Cc4ccccc4)c4ccccc4)O[C@]3(C)C1C2 (stereo partly drawn) [Compound 23] | + | + | − | + | + | − | + | + | − | + | + | − |  |  |  |  |  |  |
| C[C@H](N)C(=O)NC[C@H](Cc1ccccc1)B(O)O [Compound 40] | ± | ± | − |  |  |  |  |  |  |  |  |  |  |  |  |  |  |  |
| N[C@@H](Cc1ccccc1)C(=O)N[C@@H](CB(O)O)Cc1ccccc1 [Compound 33] | ± | − | − |  |  |  |  |  |  |  |  |  |  |  |  |  |  |  |
| CC1(C)C2CC3OB(C(CNC(=O)C(N)CCCCN)c4ccccc4)OC3(C)C1C2 (stereo not drawn) [Compound 24] | + | + | − |  |  |  |  |  |  |  |  |  |  |  |  |  |  |  |
